Legend:
[1] = system: larvae of the queen bee; test: Growth (weight) of larvae of the queen bee fed royal jelly secreted by young worker bees fed the test substance in sugar water; assay type: in vivo, Apis mellifera
[2] = system: MRJP3; test: Ratio of 68 to 64 kDa MRJP3 protein in royal jelly (SDS-PAGE); assay type: in vivo, Apis mellifera
Method: Beehives with the similar expression level of MRJP3 protein were selected for use, and two beehives were tested in each control or experimental group. On the first day, the honey originally contained in the beehives was removed by shaking, and the bees (Apis mellifera) were fed sugar water twice (normal sugar water for the control group and special sugar water for the experimental group) for two days. The special sugar water was a 10-fold dilution of the formulated sugar powder in water. On the third day, 1.5-day old larvae (which were the offspring of the same queen) were inserted into the beehives, and the bees were fed once (normal sugar water for the control group and special sugar water for the experimental group). After 24, 48, and 72 hrs, 20 larvae and the royal jelly in the cells of said 20 larvae were collected for qualitative, quantitative, and proteomic analyses.
For qualitative analysis, royal jelly and sterilized water at a weight ratio of 1:10 was mixed for extraction. A particular amount of the proteins in the aqueous layer were removed for determination of protein concentration by Bradford dye-binding method (Bio-Rad protein assay, Bio-Rad Laboratories, Inc.). The absorption at 595 nm of the protein samples was determined by Elisa Reader (Bio-TEK). […]

SMILES: CC(C)=CCC/C(C)=C/Cc1c(O)cc2c(c1O)C(=O)C[C@@H](c1ccc(O)c(O)c1)O2 [Propolin C, propolin C]
- larva weight increase ([1]; Example 4, 100 mg/kg, period of 48 to 72 hours, control around 3.58 fold): around 6.30 fold
- Average weight of each larva ([1]; Table 5, 50 mg/kg, 24 h, control 3.52): 2.40 mg
- Average weight of each larva ([1]; Table 5, 50 mg/kg, 48 h, control 13.45): 15.2 mg
- Average weight of each larva ([1]; Table 5, 50 mg/kg, 72 h, control 61.60): 70.17 mg
- Average weight of each larva ([1]; Table 5, 100 mg/kg, 24 h, control 3.52): 2.38 mg
- Average weight of each larva ([1]; Table 5, 100 mg/kg, 48 h, control 13.45): 13.48 mg
- Average weight of each larva ([1]; Table 5, 100 mg/kg, 72 h, control 61.60): 98.48 mg
- protein components of the royal jelly secreted by young worker bees ([2]; 50 to 100 mg/kg): significantly changed

SMILES: CC(C)=CCC/C(C)=C/Cc1c([C@@H]2CC(=O)c3c(cc(O)c(CC=C(C)C)c3O)O2)ccc(O)c1O [Propolin G, propolin G]
- larva weight increase ([1]; Example 5, 300 mg/kg, period of 24 to 48 hours, control around 1.60 fold): around 5.05 fold
- larva weight increase ([1]; Example 5, 300 mg/kg, period of 48 to 72 hours, control around 1.22 fold): around 5.79 fold
- Average weight of each larva ([1]; Table 6, 150 mg/kg, 24 h, control 5.23): 5.73 mg
- Average weight of each larva ([1]; Table 6, 150 mg/kg, 48 h, control 13.57): 54.2 mg
- Average weight of each larva ([1]; Table 6, 150 mg/kg, 72 h, control 30.07): 156.63 mg
- Average weight of each larva ([1]; Table 6, 300 mg/kg, 24 h, control 5.23): 3.93 mg
- Average weight of each larva ([1]; Table 6, 300 mg/kg, 48 h, control 13.57): 23.80 mg
- Average weight of each larva ([1]; Table 6, 300 mg/kg, 72 h, control 30.07): 161.73 mg
- Average weight of each larva ([1]; Table 6, 600 mg/kg, 24 h, control 5.23): 2.70 mg
- Average weight of each larva ([1]; Table 6, 600 mg/kg, 48 h, control 13.57): 13.67 mg
- Average weight of each larva ([1]; Table 6, 600 mg/kg, 72 h, control 30.07): 85.67 mg
- Average weight of each larva ([1]; Table 8, positive control 150 mg/kg, 24 h, control 1.9): 3.6 mg
- Average weight of each larva ([1]; Table 8, positive control 150 mg/kg, 48 h, control 13.3): 41.2 mg
- Average weight of each larva ([1]; Table 8, positive control 150 mg/kg, 72 h, control 38.4): 178.6 mg

SMILES: O=C(CCCCCCC(=O)Nc1ccccc1)NO [SAHA, suberoylanilide hydroxamide acid, reference compound]
- Average weight of each larva ([1]; Table 8, 5 mg/kg, 24 h, control 1.9): 4.0 mg
- Average weight of each larva ([1]; Table 8, 5 mg/kg, 48 h, control 13.3): 28.2 mg
- Average weight of each larva ([1]; Table 8, 5 mg/kg, 72 h, control 38.4): 149.3 mg
- Average weight of each larva ([1]; Table 8, 15 mg/kg, 24 h, control 1.9): 7.3 mg
- Average weight of each larva ([1]; Table 8, 15 mg/kg, 48 h, control 13.3): 41.0 mg
- Average weight of each larva ([1]; Table 8, 15 mg/kg, 72 h, control 38.4): 149.2 mg
- ratio of the protein components of the royal jelly secreted by young worker bees ([2]; 5 to 15 mg/kg): significantly changed

Source: US20110020462A1, “NEW USE OF HISTONE DEACETYLASE INHIBITORS IN CHANGING MRJP3 PROTEIN IN ROYAL JELLY” (NATUREWISE BIOTECH & MEDICALS CORPORATION, priority 2009, published 2011)
